Data published in patent US9993479B2, “Trk-inhibiting compound” (ONO PHARMACEUTICAL CO., LTD., priority 2013, dated 2018).

Tested on: sodium monoiodoacetate-induced model rats
Experiment: Analgesic effect on sodium monoiodoacetate-induced model rats
Assay type: in vivo, rat
Conditions: MIA-induced model rats
[1] = test substance 0.1, 0.3 or 1 mg/kg orally twice a day day 14-23 and 3 h before measurement on day 24, Table 8 (positive control morphine)
[2] = test substance 0.1, 0.3 or 1 mg/kg orally twice a day day 14-23 and 3 h before measurement on day 24, Table 7 (positive control tramadol)

In the case of Nc1ncc(Cl)cc1-c1ccc(Oc2ncc(NC(=O)Nc3cc(C(F)(F)F)ccc3-n3cc(Cl)cn3)cn2)cc1 [Example 15-63, 1-{2-[4-(2-amino-5-chloro-3-pyridinyl)phenoxy]-5-pyrimidinyl}-3-[2-(4-chloro-1H-pyrazol-1-yl)-5-(trifluoromethyl)phenyl]urea], the “Percent improvement (%)” value [1] is reported as 53%.

With Nc1ncc(F)cc1-c1ccc(Oc2ncc(NC(=O)Nc3cc(C(F)(F)F)ccc3-n3ccnn3)cn2)cc1 [Example 14-5, 1-(2-(1H-1,2,3-triazol-1-yl)-5-(trifluoromethyl)phenyl)-3-(2-(4-(2-amino-5-fluoropyridin-3-yl)phenoxy)pyrimidin-5-yl)urea] the “Percent improvement (%)” value [2] was 47%.

For Nc1ncc(Cl)cc1-c1ccc(Oc2ncc(NC(=O)Nc3ccc(C(F)(F)F)cc3Cl)cn2)cc1 [Example 15-6, 1-(2-(4-(2-amino-5-chloropyridin-3-yl)phenoxy)pyrimidin-5-yl)-3-(2-chloro-4-(trifluoromethyl)phenyl)urea], the “Percent improvement (%)” value [2] was 51%.

Nc1ncc(Cl)cc1-c1ccc(Oc2ncc(NC(=O)Nc3cc(C(F)(F)F)ccc3-c3ccccc3)cn2)cc1 [Example 15-55, 1-{2-[4-(2-amino-5-chloro-3-pyridinyl)phenoxy]-5-pyrimidinyl}-3-[4-(trifluoromethyl)-2-biphenylyl]urea] was tested, and the “Percent improvement (%)” value [1] was 62%.

With Nc1ncc(C(F)(F)F)cc1-c1ccc(Oc2ncc(NC(=O)Nc3cc(C(F)(F)F)ccc3-n3cc(Cl)cn3)cn2)cc1 [Example 15-87, 1-(2-{4-[2-amino-5-(trifluoromethyl)-3-pyridinyl]phenoxy}-5-pyrimidinyl)-3-[2-(4-chloro-1H-pyrazol-1-yl)-5-(trifluoromethyl)phenyl]urea] the “Percent improvement (%)” value [1] was 57%.

For O=C(Nc1cnc(Oc2ccc(-c3cnn4cccnc34)cc2)nc1)Nc1cc(C(F)(F)F)ccc1-c1cccnc1 [Example 21-13, 1-(2-(4-(pyrazolo[1,5-a]pyrimidin-3-yl)phenoxy)pyrimidin-5-yl)-3-(2-(pyridin-3-yl)-5-(trifluoromethyl)phenyl)urea], the “Percent improvement (%)” value [2] was 66%.

With Nc1ncc(Cl)cc1-c1ccc(Oc2ncc(NC(=O)Nc3cc(C(F)(F)F)ccc3-n3cccn3)cn2)cc1 [Example 7, 1-(2-(1H-pyrazol-1-yl)-5-(trifluoromethyl)phenyl)-3-(2-(4-(2-amino-5-chloropyridin-3-yl)phenoxy)pyrimidin-5-yl)urea] the “Percent improvement (%)” value [2] was 61%.

With CN(C)c1ccn2ncc(-c3ccc(Oc4ncc(NC(=O)Nc5cc(C(F)(F)F)ccc5-c5ccccc5)cn4)cc3)c2n1 [Example 21-70, 1-(2-{4-[5-(dimethylamino)pyrazolo[1,5-a]pyrimidin-3-yl]phenoxy}-5-pyrimidinyl)-3-[4-(trifluoromethyl)-2-biphenylyl]urea] the “Percent improvement (%)” value [1] was 61%.

In the case of COc1cccc(C2(O)CCCCC2CN(C)C)c1 (stereo not shown) [Tramadol, tramadol, reference compound], the “Percent improvement (%)” value (tramadol 10 mg/kg subcutaneously 1 hour before measurement on day 24, Table 7) is reported as 43%.

With CN(C)c1ccn2ncc(-c3ccc(Oc4ncc(NC(=O)Nc5cc(C(F)(F)F)ccc5-c5ccnn5C)cn4)cc3)c2n1 [Example 21-51, 1-(2-{4-[5-(dimethylamino)pyrazolo[1,5-a]pyrimidin-3-yl]phenoxy}-5-pyrimidinyl)-3-[2-(1-methyl-1H-pyrazol-5-yl)-5-(trifluoromethyl)phenyl]urea] the “Percent improvement (%)” value [1] was 68%.

Nc1ncc(C(F)(F)F)cc1-c1ccc(Oc2ncc(NC(=O)Nc3cc(C(F)(F)F)ccc3-n3ccc(C(F)(F)F)n3)cn2)cc1 [Example 15-52, 1-(2-{4-[2-amino-5-(trifluoromethyl)-3-pyridinyl]phenoxy}-5-pyrimidinyl)-3-{5-(trifluoromethyl)-2-[3-(trifluoromethyl)-1H-pyrazol-1-yl]phenyl}urea] was tested, and the “Percent improvement (%)” value [1] was 60%.

Cc1cn(-c2ccc(C(F)(F)F)cc2NC(=O)Nc2cnc(Oc3ccc(-c4cc(Cl)cnc4N)cc3)nc2)nn1 [Example 8-1, 1-(2-(4-(2-amino-5-chloropyridin-3-yl)phenoxy)pyrimidin-5-yl)-3-(2-(4-methyl-1H-1,2,3-triazol-1-yl)-5-(trifluoromethyl)phenyl)urea] was tested, and the “Percent improvement (%)” value [2] was 60%.

In the case of Nc1ncc(Cl)cc1-c1ccc(Oc2ncc(NC(=O)Nc3ccc(C(F)(F)F)cc3C(F)(F)F)cn2)cc1 [Example 15-77, 1-{2-[4-(2-amino-5-chloro-3-pyridinyl)phenoxy]-5-pyrimidinyl}-3-[2,4-bis(trifluoromethyl)phenyl]urea], the “Percent improvement (%)” value [1] is reported as 55%.

CS(=O)(=O)c1ccc(C(F)(F)F)cc1NC(=O)Nc1cnc(Oc2ccc(-c3cc(C(F)(F)F)cnc3N)cc2)nc1 [Example 15-98, 1-(2-{4-[2-amino-5-(trifluoromethyl)-3-pyridinyl]phenoxy}-5-pyrimidinyl)-3-[2-(methylsulfonyl)-5-(trifluoromethyl)phenyl]urea] was tested, and the “Percent improvement (%)” value [1] was 57%.

In the case of COc1ccn2ncc(-c3ccc(Oc4ncc(NC(=O)Nc5cc(C(F)(F)F)ccc5-c5cccnc5)cn4)cc3)c2n1 [Example 21-9, 1-(2-(4-(5-methoxypyrazolo[1,5-a]pyrimidin-3-yl)phenoxy)pyrimidin-5-yl)-3-(2-(pyridin-3-yl)-5-(trifluoromethyl)phenyl)urea], the “Percent improvement (%)” value [2] is reported as 64%.

CS(=O)(=O)c1ccc(C(F)(F)F)cc1NC(=O)Nc1cnc(Oc2ccc(-c3cc(Cl)cnc3N)cc2)nc1 [Example 15-104, 1-{2-[4-(2-amino-5-chloro-3-pyridinyl)phenoxy]-5-pyrimidinyl}-3-[2-(methylsulfonyl)-5-(trifluoromethyl)phenyl]urea] was tested, and the “Percent improvement (%)” value [1] was 54%.

With Cc1cccc(-c2ccc(C(F)(F)F)cc2NC(=O)Nc2cnc(Oc3ccc(-c4cnn5ccc(N(C)C)nc45)cc3)nc2)c1 [Example 21-73, 1-(2-{4-[5-(dimethylamino)pyrazolo[1,5-a]pyrimidin-3-yl]phenoxy}-5-pyrimidinyl)-3-[3′-methyl-4-(trifluoromethyl)-2-biphenylyl]urea] the “Percent improvement (%)” value [1] was 62%.

With Nc1ncc(F)cc1-c1ccc(Oc2ncc(NC(=O)Nc3cc(C(F)(F)F)ccc3-c3cccnc3)cn2)cc1 [Example 14-6, 1-(2-(4-(2-amino-5-fluoropyridin-3-yl)phenoxy)pyrimidin-5-yl)-3-(2-(pyridin-3-yl)-5-(trifluoromethyl)phenyl)urea] the “Percent improvement (%)” value [1] was 53%.

With CN(C)c1ccn2ncc(-c3ccc(Oc4ncc(NC(=O)Nc5cc(C(F)(F)F)ccc5-c5cccnc5)cn4)cc3)c2n1 [Example 21-37, 1-(2-{4-[5-(dimethylamino)pyrazolo[1,5-a]pyrimidin-3-yl]phenoxy}-5-pyrimidinyl)-3-[2-(3-pyridinyl)-5-(trifluoromethyl)phenyl]urea] the “Percent improvement (%)” value [1] was 67%.
